Results published in PubChem BioAssay (NCI).
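A five-concentration, 48-hour dose response in 96-well plates underlies each endpoint, interpolated linearly between surrounding concentrations. Here, GI50 denotes the concentration required for 50% inhibition of growth. TGI: total growth inhibition.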

Key:
Assay in all cases: growth of human tumour cells (NCI), 48 h
786-0 renal = tested on: 786-0 renal
A498 renal = tested on: A498 renal
A549 NSCLC = tested on: A549 NSCLC
ACHN renal = tested on: ACHN renal
BT-549 breast = tested on: BT-549 breast
CAKI-1 renal = tested on: CAKI-1 renal
CCRF-CEM leukemia = tested on: CCRF-CEM leukemia
COLO 205 colon = tested on: COLO 205 colon
DU-145 prostate = tested on: DU-145 prostate
EKVX NSCLC = tested on: EKVX NSCLC
HCC-2998 colon = tested on: HCC-2998 colon
HCT-116 colon = tested on: HCT-116 colon
HCT-15 colon = tested on: HCT-15 colon
HL-60(TB) leukemia = tested on: HL-60(TB) leukemia
HOP-62 NSCLC = tested on: HOP-62 NSCLC
HOP-92 NSCLC = tested on: HOP-92 NSCLC
HS 578T breast = tested on: HS 578T breast
HT29 colon = tested on: HT29 colon
IGROV1 ovarian = tested on: IGROV1 ovarian
K-562 leukemia = tested on: K-562 leukemia
KM12 colon = tested on: KM12 colon
LOX IMVI melanoma = tested on: LOX IMVI melanoma
M14 melanoma = tested on: M14 melanoma
MALME-3M melanoma = tested on: MALME-3M melanoma
MCF7 breast = tested on: MCF7 breast
MDA-MB-231 breast = tested on: MDA-MB-231 breast
MDA-MB-435 = tested on: MDA-MB-435
MOLT-4 leukemia = tested on: MOLT-4 leukemia
NCI-H226 lung = tested on: NCI-H226 lung
NCI-H23 lung = tested on: NCI-H23 lung
NCI-H460 lung = tested on: NCI-H460 lung
NCI-H522 lung = tested on: NCI-H522 lung
NCI/ADR-RES ovarian = tested on: NCI/ADR-RES ovarian
OVCAR-3 ovarian = tested on: OVCAR-3 ovarian
OVCAR-4 ovarian = tested on: OVCAR-4 ovarian
OVCAR-5 ovarian = tested on: OVCAR-5 ovarian
OVCAR-8 ovarian = tested on: OVCAR-8 ovarian
PC-3 prostate = tested on: PC-3 prostate
RPMI-8226 leukemia = tested on: RPMI-8226 leukemia
RXF 393 renal = tested on: RXF 393 renal
SF-268 CNS = tested on: SF-268 CNS
SF-295 CNS = tested on: SF-295 CNS
SF-539 CNS = tested on: SF-539 CNS
SK-MEL-2 melanoma = tested on: SK-MEL-2 melanoma
SK-MEL-28 melanoma = tested on: SK-MEL-28 melanoma
SK-MEL-5 melanoma = tested on: SK-MEL-5 melanoma
SK-OV-3 ovarian = tested on: SK-OV-3 ovarian
SN12C renal = tested on: SN12C renal
SNB-19 CNS = tested on: SNB-19 CNS
SNB-75 CNS = tested on: SNB-75 CNS
SR leukemia = tested on: SR leukemia
SW-620 colon = tested on: SW-620 colon
T-47D breast = tested on: T-47D breast
TK-10 renal = tested on: TK-10 renal
U251 CNS = tested on: U251 CNS
UACC-257 melanoma = tested on: UACC-257 melanoma
UACC-62 melanoma = tested on: UACC-62 melanoma
UO-31 renal = tested on: UO-31 renal

CC1C(C)N(C(=O)CCl)c2ccccc2N1C(=O)CCl (centres undefined)
GI50 (786-0 renal): 937 nM | TGI (786-0 renal): 3020 nM | GI50 (A498 renal): 1590 nM | TGI (A498 renal): 3140 nM | GI50 (A549 NSCLC): 2250 nM | TGI (A549 NSCLC): 6110 nM | GI50 (ACHN renal): 309 nM | TGI (ACHN renal): 783 nM | GI50 (BT-549 breast): 849 nM | TGI (BT-549 breast): 2410 nM | GI50 (CAKI-1 renal): 186 nM | TGI (CAKI-1 renal): 355 nM | GI50 (CCRF-CEM leukemia): 150 nM | TGI (CCRF-CEM leukemia): 629 nM | GI50 (COLO 205 colon): 399 nM | TGI (COLO 205 colon): 973 nM | GI50 (DU-145 prostate): 472 nM | TGI (DU-145 prostate): 1800 nM | GI50 (EKVX NSCLC): 941 nM | TGI (EKVX NSCLC): 2420 nM | GI50 (HCC-2998 colon): 1690 nM | TGI (HCC-2998 colon): 3230 nM | GI50 (HCT-116 colon): 185 nM | TGI (HCT-116 colon): 406 nM | GI50 (HCT-15 colon): 304 nM | TGI (HCT-15 colon): 1280 nM | GI50 (HL-60(TB) leukemia): 211 nM | TGI (HL-60(TB) leukemia): 535 nM | GI50 (HOP-62 NSCLC): 1620 nM | TGI (HOP-62 NSCLC): 3520 nM | GI50 (HOP-92 NSCLC): 709 nM | TGI (HOP-92 NSCLC): 1840 nM | GI50 (HS 578T breast): 1060 nM | TGI (HS 578T breast): 7630 nM | GI50 (HT29 colon): 225 nM | TGI (HT29 colon): 523 nM | GI50 (IGROV1 ovarian): 203 nM | TGI (IGROV1 ovarian): 435 nM | GI50 (K-562 leukemia): 282 nM | TGI (K-562 leukemia): 2370 nM | GI50 (KM12 colon): 550 nM | TGI (KM12 colon): 1340 nM | GI50 (LOX IMVI melanoma): 235 nM | TGI (LOX IMVI melanoma): 729 nM | GI50 (M14 melanoma): 597 nM | TGI (M14 melanoma): 2200 nM | GI50 (MALME-3M melanoma): 365 nM | TGI (MALME-3M melanoma): 1320 nM | GI50 (MCF7 breast): 318 nM | TGI (MCF7 breast): 1600 nM | GI50 (MDA-MB-231 breast): 1180 nM | TGI (MDA-MB-231 breast): 3600 nM | GI50 (MDA-MB-435): 276 nM | TGI (MDA-MB-435): 939 nM | GI50 (MOLT-4 leukemia): 243 nM | TGI (MOLT-4 leukemia): 810 nM | GI50 (NCI-H226 lung): 1110 nM | TGI (NCI-H226 lung): 3520 nM | GI50 (NCI-H23 lung): 705 nM | TGI (NCI-H23 lung): 2680 nM | GI50 (NCI-H460 lung): 1740 nM | TGI (NCI-H460 lung): 3980 nM | GI50 (NCI-H522 lung): 162 nM | TGI (NCI-H522 lung): 347 nM | GI50 (NCI/ADR-RES ovarian): 784 nM | TGI (NCI/ADR-RES ovarian): 13300 nM | GI50 (OVCAR-3 ovarian): 194 nM | TGI (OVCAR-3 ovarian): 428 nM | GI50 (OVCAR-4 ovarian): 499 nM | TGI (OVCAR-4 ovarian): 1730 nM | GI50 (OVCAR-5 ovarian): 896 nM | TGI (OVCAR-5 ovarian): 2570 nM | GI50 (OVCAR-8 ovarian): 550 nM | TGI (OVCAR-8 ovarian): 12500 nM | GI50 (PC-3 prostate): 1190 nM | TGI (PC-3 prostate): 2850 nM | GI50 (RPMI-8226 leukemia): 210 nM | TGI (RPMI-8226 leukemia): 649 nM | GI50 (RXF 393 renal): 266 nM | TGI (RXF 393 renal): 961 nM | GI50 (SF-268 CNS): 582 nM | TGI (SF-268 CNS): 2110 nM | GI50 (SF-295 CNS): 1450 nM | TGI (SF-295 CNS): 3060 nM | GI50 (SF-539 CNS): 1400 nM | TGI (SF-539 CNS): 2890 nM | GI50 (SK-MEL-2 melanoma): 1660 nM | TGI (SK-MEL-2 melanoma): 4540 nM | GI50 (SK-MEL-28 melanoma): 838 nM | TGI (SK-MEL-28 melanoma): 2900 nM | GI50 (SK-MEL-5 melanoma): 1270 nM | TGI (SK-MEL-5 melanoma): 2850 nM | GI50 (SK-OV-3 ovarian): 1580 nM | TGI (SK-OV-3 ovarian): 3000 nM | GI50 (SN12C renal): 793 nM | TGI (SN12C renal): 3050 nM | GI50 (SNB-19 CNS): 2160 nM | TGI (SNB-19 CNS): 5400 nM | GI50 (SNB-75 CNS): 1360 nM | TGI (SNB-75 CNS): 2840 nM | GI50 (SR leukemia): 396 nM | TGI (SR leukemia): 2020 nM | GI50 (SW-620 colon): 209 nM | TGI (SW-620 colon): 485 nM | GI50 (T-47D breast): 843 nM | TGI (T-47D breast): 2670 nM | GI50 (TK-10 renal): 780 nM | TGI (TK-10 renal): 2040 nM | GI50 (U251 CNS): 755 nM | TGI (U251 CNS): 2140 nM | GI50 (UACC-257 melanoma): 723 nM | TGI (UACC-257 melanoma): 3160 nM | GI50 (UACC-62 melanoma): 624 nM | TGI (UACC-62 melanoma): 2100 nM | GI50 (UO-31 renal): 168 nM | TGI (UO-31 renal): 346 nM

COC(=O)c1ccc(C)cc1CC1Cc2ccc(C)cc2C1=O (centres undefined)
TGI (786-0 renal): 48500 nM | TGI (A498 renal): 9190 nM | TGI (A549 NSCLC): 93500 nM | TGI (ACHN renal): 80800 nM | TGI (BT-549 breast): 52600 nM | TGI (CAKI-1 renal): > 100000 nM | TGI (CCRF-CEM leukemia): 74500 nM | TGI (COLO 205 colon): 26100 nM | TGI (DU-145 prostate): > 100000 nM | TGI (EKVX NSCLC): 36600 nM | TGI (HCC-2998 colon): 32300 nM | TGI (HCT-116 colon): 19000 nM | TGI (HCT-15 colon): 13100 nM | TGI (HL-60(TB) leukemia): 10700 nM | TGI (HOP-62 NSCLC): > 100000 nM | TGI (HOP-92 NSCLC): 61400 nM | TGI (HS 578T breast): 48900 nM | TGI (HT29 colon): 11100 nM | TGI (IGROV1 ovarian): > 100000 nM | TGI (K-562 leukemia): 10500 nM | TGI (KM12 colon): 22100 nM | TGI (LOX IMVI melanoma): 14800 nM | TGI (M14 melanoma): 32200 nM | TGI (MALME-3M melanoma): 24300 nM | TGI (MCF7 breast): 19900 nM | TGI (MDA-MB-231 breast): 77400 nM | TGI (MDA-MB-435): 4030 nM | TGI (MOLT-4 leukemia): 26400 nM | TGI (NCI-H226 lung): 27200 nM | TGI (NCI-H23 lung): 74700 nM | TGI (NCI-H460 lung): 31300 nM | TGI (NCI-H522 lung): 5480 nM | TGI (NCI/ADR-RES ovarian): 18300 nM | TGI (OVCAR-3 ovarian): 25300 nM | TGI (OVCAR-4 ovarian): 89500 nM | TGI (OVCAR-5 ovarian): 92400 nM | TGI (OVCAR-8 ovarian): 57500 nM | TGI (PC-3 prostate): 71800 nM | TGI (RPMI-8226 leukemia): 36500 nM | TGI (RXF 393 renal): 28800 nM | TGI (SF-268 CNS): 61700 nM | TGI (SF-295 CNS): 96700 nM | TGI (SF-539 CNS): 19500 nM | TGI (SK-MEL-2 melanoma): 30600 nM | TGI (SK-MEL-28 melanoma): 76700 nM | TGI (SK-MEL-5 melanoma): 19600 nM | TGI (SK-OV-3 ovarian): 59500 nM | TGI (SN12C renal): 32700 nM | TGI (SNB-19 CNS): > 100000 nM | TGI (SNB-75 CNS): 43800 nM | TGI (SR leukemia): 8680 nM | TGI (SW-620 colon): > 100000 nM | TGI (T-47D breast): 63000 nM | TGI (TK-10 renal): 46800 nM | TGI (U251 CNS): 16300 nM | TGI (UACC-257 melanoma): 53600 nM | TGI (UACC-62 melanoma): 51400 nM | TGI (UO-31 renal): 64000 nM
